Assay results from PubChem BioAssay (NCI).
Where “and” joins values, the source holds several entries; their conditions need not be identical. Equal entries are not always repeated.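 Five compound concentrations were applied to cells in 96-well plates for 48 hours; endpoints were derived by simple linear interpolation of the resulting dose-response curve. GI50: concentration for 50% inhibition of growth. TGI marks complete inhibition of growth.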 Where a SMILES comes first, the peptide text is derived from it. Bridges are numbered along the chain shown (N, C = ends). [ ]: non-standard residue; d: D form. The star is where a group is joined. ξ: configuration not given here. ξDab(CH2SO3H) = NC(CCNCS(=O)(=O)O)C(=O)O; Heptanoyl(6-Me) = CC(C)CCCCC(=O)*; Dab = NCC[CH](N)C(=O)O

Columns and labels:
Assay in all cases: growth of human tumour cells (NCI), 48 h
[1] = test system: KM12 colon
[2] = test system: MALME-3M melanoma
[3] = test system: MDA-MB-435
[4] = test system: NCI/ADR-RES ovarian
[5] = test system: SF-268 CNS
[6] = test system: TK-10 renal
[7] = test system: T-47D breast
[8] = test system: LOX IMVI melanoma
[9] = test system: SNB-19 CNS
[10] = test system: HT29 colon

Row | Structure (SMILES) | GI50 [1] | TGI [1] | GI50 [2] | TGI [2] | GI50 [3] | TGI [3] | GI50 [4] | TGI [4] | GI50 [5] | TGI [5] | GI50 [6] | TGI [6] | GI50 [7] | TGI [7] | GI50 [8] | TGI [8] | GI50 [9] | TGI [9] | GI50 [10] | TGI [10]
1 | O=C([O][Hg][CH2]C1OCCOC1[CH2][Hg][O]C(=O)c1ccccc1)c1ccccc1 (stereo not drawn) | 16.3 µM | 30.1 µM | 2.18 µM | 3.88 µM | 15900 nM | 29.3 µM | 18.7 µM | 40.7 µM | 17.2 µM | 30.9 µM | 1.91 µM | 3.35 µM | 1820 nM | 3.59 µM | 3.66 µM | 7.56 µM | 16.5 µM | 30.8 µM | 5.77 µM | 10.6 µM
2 | N=N/C(=C\c1c(O)[nH]c2ccccc12)c1ccccc1 | – | > 89.2 µM | – | > 78 µM | – | 20.3 µM | – | > 57.2 µM | – | > 100 µM | – | > 100 µM | – | > 100 µM | – | > 70.2 µM | – | > 92.9 µM | – | 44.9 µM
3 | COC(=O)C1=COC(C)C2CN3CCc4c([nH]c5cc(OC)c(OC)cc45)C3CC12 (stereo not drawn) | > 100 µM and 37.2 µM | > 100 µM | – | > 100 µM | – | > 100 µM | 15.1 µM and 64.2 µM | > 100 µM | – | > 100 µM | – | > 100 µM | – | > 100 µM | – | > 100 µM | – | > 100 µM | – | > 100 µM and 94.5 µM
4 | CCC(C)C1NC(=O)C(CCNCS(=O)(=O)O)NC(=O)C(NC(=O)C(CCNCS(=O)(=O)O)NC(=O)C(NC(=O)C(CCNCS(=O)(=O)O)NC(=O)CCCCC(C)C)C(C)O)CCNC(=O)C(C(C)O)NC(=O)C(CCNCS(=O)(=O)O)NC(=O)C(CCNCS(=O)(=O)O)NC(=O)C(C(C)CC)NC1=O (stereo not drawn) ({Heptanoyl(6-Me)}-[ξDab(CH2SO3H)]T[ξDab(CH2SO3H)][Dab][ξDab(CH2SO3H)]II[ξDab(CH2SO3H)][ξDab(CH2SO3H)]T; lactam 4-C; configuration not given here) | 2.99 µM | 9.55 µM | > 25 µM | > 25 µM | 930 nM | 5.02 µM | > 25 µM | > 25 µM | 6.88 µM | > 25 µM | > 25 µM | > 25 µM | > 25000 nM | > 25 µM | 5.21 µM | > 25 µM | 11.6 µM | > 25 µM | 7.92 µM | > 25 µM
5 | COc1ccc2c(c1)oc(=O)c1cc(OC)ccc12 | > 100 µM | > 100 µM | > 100 µM | > 100 µM | > 100000 nM | > 100 µM | > 100 µM | > 100 µM | > 100 µM | > 100 µM | > 100 µM | > 100 µM | > 100000 nM | > 100 µM | > 100 µM | > 100 µM | > 100 µM | > 100 µM | > 100 µM | > 100 µM
6 | CC1=CCCC2C1(C)CCC(C)C2(C)Cc1cc(O)ccc1O (stereo not drawn) | 5.16 µM | 18.7 µM | 14.7 µM | 29.2 µM and 35.7 µM | – | 27 µM | – | 18.2 µM and 18.9 µM | 5.4 µM | 21.1 µM and 20.7 µM | – | 25.5 µM | – | 27.3 µM | 3.6 µM | 16.2 µM and 16.3 µM | 11.5 µM | 27.3 µM and 18.5 µM | 14.2 µM | 29.6 µM and 37.1 µM
7 | Cc1nc(-c2nc(-c3ccc(OC(F)(F)F)cc3)no2)nn1Cc1cccc(N2CCC(S(C)(=O)=O)CC2)c1 | > 52.6 µM | > 100 µM | > 34.3 µM | > 76.8 µM | 2900 nM | > 100 µM | 0.529 µM | 28.6 µM | > 40.9 µM | > 100 µM | 4.41 µM | > 100 µM | 13.4 nM | > 100 µM | 0.012 µM | > 100 µM | 8.75 µM | 95.4 µM | > 25 µM | > 100 µM
8 | CONC(C)=O | – | > 100 µM | – | > 100 µM | – | > 100 µM | – | > 100 µM | – | > 100 µM | – | > 100 µM | – | > 100 µM | – | > 100 µM | – | > 100 µM | – | > 100 µM
